For one test, the system named is xxLAI strain of HIV-1. Nature of the test: microbe, parasite or virus in culture. In kind it is cell-based. The settings on record: for Fold difference in EC50, 0.1 μM MPA: control vs with 0.1 μM MPA; for Fold difference in EC50, 0.25 μM MPA: control vs with 0.25 μM MPA (fold decrease); for Fold difference in EC50, 1 μM RBV: control vs with 1 μM RBV; for Fold difference in EC50, 5 μM RBV: control vs with 5 μM RBV; for Fold difference in EC50, 10 μM RBV: control vs with 10 μM RBV; for Fold difference in EC50, 20 μM RBV: control vs with 20 μM RBV (fold decrease). On the procedure: (§1) Triplicate samples of compound were tested. MT2 cells were infected with xxLAI at a multiplicity of infection (MOI) of 0.03 for 3 hours at 37° C. in 5% CO2. The infected cells were plated at 3.0×10^4/well into a 96 well plated containing drug dilutions and incubated for 5 days at 37° C. in CO2. […] This method has been modified into a susceptibility assay and has been used in a variety of in vitro antiviral tests and is readily adaptable to any system with a lytic virus (Weislow, O. S., et. al. 1989). Using the absorption values of the cell controls as 100% protection and no drug, virus infected cells as 0% protection, a dose response curve is generated by plotting % protection on the Y axis and drug concentration on the X axis. From this curve EC50 values were determined.
(§2) Assays were performed in the MT2 cell line as described above in the XXT sensitivity assay section.
MPA was tested for activity against the xxLAI strain of HIV-1 in the laboratory adapted cell line MT2. Dilutions of MPA were made in cell culture media in a 96 well plate; the highest concentration tested was 1 μM. Triplicate samples of compound were tested. MT2 cells were infected with xxLAI at a multiplicity of infection (MOI) of 0.03 for 3 hours at 37° C. in 5% CO2. The infected cells were plated at 3.0×10^4/well into a 96 well plated containing drug dilutions and incubated for 5 days at 37° C. in CO2. The antiviral activity of MPA was determined using the XTT assay described above. This method has been modified into a susceptibility assay and has been used in a variety of in vitro antiviral tests and is readily adaptable to any system with a lytic virus (Weislow, O. S., et. al. 1989). Using the absorption values of the cell controls as 100% protection and no drug, virus infected cells as 0% protection, a dose response curve is generated by plotting % protection on the Y axis and drug concentration on the X axis. From this curve EC50 values were determined.
(§3) The concentrations of MPA used were 1, 0.5, 0.25, 0.1, and 0.01 μM. Assays were performed in the MT2 cell line as described in section 3.1.

The next test deals with HIV-1 mutant L74V. The experiment in a line: MT2/XTT combination assay, resistant virus L74V. In kind it is cell-based. The following applies: for EC50: Human immunodeficiency virus 1, L74V; for fold difference from WT: L74V. The protocol:
as §1, §2
(§4) The restraint strains analyzed included viruses created by site directed mutagenesis, K65R and L74V, as well as a recombinant virus containing mutations at positions 98S, 116Y, 151M and 215Y. The wild type backbone in which these mutants were created, xxLAI, was also analyzed for comparison. The concentrations of DAPD and DXG tested were as described in the above MT2/XTT combination assay section.
as §3
(§5) The restraint strains analyzed included viruses created by site directed mutagenesis, K65R and L74V, as well as a recombinant virus containing mutations at positions 98S, 116Y, 151M and 215Y. The wild type backbone in which these mutants were created, xxLAI, was also analyzed for comparison. The concentrations of DAPD and DXG tested were as described in section 4.1. MPA was tested in combination with DAPD and DXG at a fixed concentration of 0.25 μM.
(Formazan colour is commonly taken as a measure of viable cells.)

The test system of test [1] is recombinant virus A98S, F116Y, Q151M, T215Y. Nature of the test: MT2/XTT combination assay, recombinant resistant virus. The format is cell-based, HIV-1. The following applies: for fold difference from WT: A98S; for EC50: Human immunodeficiency virus 1, A98S. The protocol:
as §1, §2, §4, §3, §5

The mark [2] stands for this setting: Human immunodeficiency virus 1, MT2, read-out: Mean EC50, Control, MT2 cells, no MPA.
[3] abbreviates: Human immunodeficiency virus 1, MT2, read-out: Mean EC50, Control, MT2 cells, no RBV.
The mark [4] stands for this setting: read-out: Mean EC50, 0.01 μM MPA, MT2 cells, with 0.01 μM MPA.
The mark [5] stands for this setting: read-out: Mean EC50, 0.1 μM MPA, MT2 cells, with 0.1 μM MPA.
[6] abbreviates: read-out: Mean EC50, 0.25 μM MPA, MT2 cells, with 0.25 μM MPA.
The mark [7] stands for this setting: read-out: Mean EC50, 1 μM RBV, MT2 cells, with 1 μM RBV.
The mark [8] stands for this setting: read-out: Mean EC50, 5 μM RBV, MT2 cells, with 5 μM RBV.
Where [9] appears, read: read-out: Mean EC50, 10 μM RBV, MT2 cells, with 10 μM RBV.
Where [10] appears, read: read-out: Mean EC50, 20 μM RBV, MT2 cells, with 20 μM RBV.

By EC50 is commonly meant the concentration that produces a half-maximal response.

Like-named read-outs stand apart in the source and are kept apart here.

On to `Nc1nc(N)c2ncn(C3COC(CO)O3)c2n1` (single isomer, unassigned; (-)) [DAPD], for which the EC50 with xxLAI strain of HIV-1 (setting [2]) came to 20000 nM; in the test with xxLAI strain of HIV-1 (setting [3]), 18500 nM; in the test with xxLAI strain of HIV-1 (setting [4]), 22000 nM; in the test on xxLAI strain of HIV-1 (setting [5]), 4900 nM; in the test with xxLAI strain of HIV-1 (setting [6]), 1200 nM; with xxLAI strain of HIV-1 (setting [7]), 8200 nM. Besides, the EC50 with xxLAI strain of HIV-1 (setting [8]) is 2900 nM; in the test with xxLAI strain of HIV-1 (setting [9]), 1600 nM; with xxLAI strain of HIV-1 (setting [10]), 1300 nM; in the test on HIV-1 mutant L74V (compound alone (Table 4)), 34 µM; with HIV-1 mutant L74V (compound alone (Table 10)), 39 µM; in test [1] (compound alone (Table 4)), above 100 µM. The EC50 in test [1] (compound alone (Table 10)) was 85 µM. In the test on xxLAI strain of HIV-1 (MT2 cells), the “Fold difference in EC50, 0.1 μM MPA” value is 4.1 fold. In addition, the “Fold difference in EC50, 0.25 μM MPA” value in the test on xxLAI strain of HIV-1 (MT2 cells) was determined as 16.7 fold. In the test on xxLAI strain of HIV-1 (MT2 cells), the “Fold difference in EC50, 1 μM RBV” value is 2.25 fold. In addition, the “Fold difference in EC50, 5 μM RBV” value in the test on xxLAI strain of HIV-1 (MT2 cells) came to 6.4 fold. The “Fold difference in EC50, 10 μM RBV” value in the test with xxLAI strain of HIV-1 (MT2 cells) is 11.56 fold. Also, in the test with xxLAI strain of HIV-1 (MT2 cells), the “Fold difference in EC50, 20 μM RBV” value was found to be 14.2 fold. The “fold difference from WT” value in the test on HIV-1 mutant L74V (compound alone (Table 4)) is reported as “(4) fold”; in the test with HIV-1 mutant L74V (compound alone (Table 10)) it was 4.9 fold; in test [1] (compound alone (Table 4)), “(>12) fold”; in test [1] (compound alone (Table 10)), 6 fold.

Regarding `Nc1nc2c(ncn2C2COC(CO)O2)c(=O)[nH]1` (single isomer, unassigned; (-)) [DXG], the EC50 with xxLAI strain of HIV-1 (setting [2]) came to 2100 nM; with xxLAI strain of HIV-1 (setting [3]), 2650 nM; in the test with xxLAI strain of HIV-1 (setting [4]) it was 2500 nM; in the test on xxLAI strain of HIV-1 (setting [5]) it was 600 nM; in the test with xxLAI strain of HIV-1 (setting [6]) it was 200 nM; in the test with xxLAI strain of HIV-1 (setting [7]), 2050 nM. In addition, the EC50 with xxLAI strain of HIV-1 (setting [8]) came out at 580 nM; with xxLAI strain of HIV-1 (setting [9]) it was 500 nM; in the test with xxLAI strain of HIV-1 (setting [10]), 220 nM; in the test with HIV-1 mutant L74V (compound alone (Table 4)), 4.5 µM; in the test on HIV-1 mutant L74V (compound alone (Table 10)), 3.8 µM; in test [1] (compound alone (Table 4)), 16 µM. The EC50 in test [1] (compound alone (Table 10)) worked out at 16 µM. The “Fold difference in EC50, 0.1 μM MPA” value in the test with xxLAI strain of HIV-1 (MT2 cells) worked out at 3.5 fold. In the test on xxLAI strain of HIV-1 (MT2 cells), the “Fold difference in EC50, 0.25 μM MPA” value turned out to be 10.5 fold. The “Fold difference in EC50, 1 μM RBV” value in the test on xxLAI strain of HIV-1 (MT2 cells) is listed as 1.29 fold. For the same compound, the “Fold difference in EC50, 5 μM RBV” value in the test with xxLAI strain of HIV-1 (MT2 cells) amounted to 4.57 fold. Further, the “Fold difference in EC50, 10 μM RBV” value in the test on xxLAI strain of HIV-1 (MT2 cells) is listed as 5.3 fold. The “Fold difference in EC50, 20 μM RBV” value with xxLAI strain of HIV-1 (MT2 cells) is listed as 12 fold. The “fold difference from WT” value with HIV-1 mutant L74V (compound alone (Table 4)) came out at 5.6 fold; in the test on HIV-1 mutant L74V (compound alone (Table 10)), 4.2 fold; in test [1] (compound alone (Table 4)), 20 fold; in test [1] (compound alone (Table 10)), 8.4 fold.

For the origin of these results see patent US20020173491A1, “DAPD combination therapy with inosine monophosphate dehydrogenase inhibitor” (priority 2000, published 2002).
